Data as given in patent publication US8946439B2, “Amide compounds, compositions and uses thereof” (Evotec AG, priority 2008, dated 2015).
Where two headings read alike, the source gives them in different places.

Legend:
[1] = target: T1, hP2X2/3H (Homo sapiens, UniProt P56373+Q9UBL9); test: Calcium uptake assay (P2X antagonist assay), P2X2/3 heteromer; type: cell-based; details: hP2X2/3H
T1 construct: expressed in transfected cells; host or cells: e.g. HEK293 or 1321N1
T1 sequence (Q9UBL9 1-471): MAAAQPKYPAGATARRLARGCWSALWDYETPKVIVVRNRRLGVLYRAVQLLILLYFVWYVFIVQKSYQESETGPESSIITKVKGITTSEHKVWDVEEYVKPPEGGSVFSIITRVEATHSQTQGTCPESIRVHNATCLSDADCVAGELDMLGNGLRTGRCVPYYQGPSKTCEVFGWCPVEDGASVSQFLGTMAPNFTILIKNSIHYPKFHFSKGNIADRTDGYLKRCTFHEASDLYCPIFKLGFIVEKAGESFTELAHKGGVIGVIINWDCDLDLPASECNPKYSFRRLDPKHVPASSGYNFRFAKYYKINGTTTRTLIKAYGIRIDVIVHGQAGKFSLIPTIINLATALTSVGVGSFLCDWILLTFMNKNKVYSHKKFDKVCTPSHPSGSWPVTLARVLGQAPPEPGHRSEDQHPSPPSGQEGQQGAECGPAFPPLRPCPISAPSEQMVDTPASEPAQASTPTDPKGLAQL
T1 sequence (P56373 1-397): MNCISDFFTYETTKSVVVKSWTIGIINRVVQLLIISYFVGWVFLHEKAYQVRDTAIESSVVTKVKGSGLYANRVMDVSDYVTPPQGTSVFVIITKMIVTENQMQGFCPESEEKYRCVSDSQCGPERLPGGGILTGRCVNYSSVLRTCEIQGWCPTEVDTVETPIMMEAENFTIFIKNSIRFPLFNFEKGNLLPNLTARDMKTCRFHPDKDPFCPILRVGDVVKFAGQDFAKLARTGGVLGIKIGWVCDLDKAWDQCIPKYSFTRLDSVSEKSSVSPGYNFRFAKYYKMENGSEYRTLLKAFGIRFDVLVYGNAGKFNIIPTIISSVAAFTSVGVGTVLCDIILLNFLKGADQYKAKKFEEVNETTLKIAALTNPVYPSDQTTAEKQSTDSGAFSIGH
Procedure, shortened: (§1)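 Stably or transiently transfected HEK293 or 1321N1 cells; the heteromer is made by adding P2X3 to a P2X2-stable line, with heteromer function isolated pharmacologically. The peak-minus-baseline FLIPR calcium signal gives % inhibition and a 4-parameter-logistic IC50.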

[2] = target: T2, hP2X3 (Homo sapiens, UniProt P56373); test: Calcium uptake assay (P2X antagonist assay), P2X3 homomer; type: cell-based; details: hP2X3
T2 construct: expressed in transfected cells; host or cells: e.g. HEK293 or 1321N1
T2 sequence (P56373 1-397): T1 sequence (P56373 1-397)
Procedure, shortened: as §1

[3] = Ca influx (calcium uptake assay), read-out: IC50 hP2X2/3H
[4] = Ca influx (calcium uptake assay), read-out: IC50 hP2X3
[5] = calcium uptake assay, read-out: IC50 hP2X2/3H (nM), Ca Influx
[6] = calcium uptake assay, read-out: IC50 hP2X3 (nM), Ca Influx

| Structure (SMILES) | IC50 [1, 3] [nM] | IC50 [2, 4] [nM] | IC50 [1, 5] [nM] | IC50 [2, 6] [nM] |
| --- | --- | --- | --- | --- |
| Cc1ccc(-c2cc(C(=O)NCc3ccc(C)nc3)cc(C(=O)N(C)CC(F)(F)F)c2)cc1 [Compound 168, N3,4′-Dimethyl-N5-((6-methylpyridin-3-yl)methyl)-N3-(2,2,2-trifluoroethyl)biphenyl-3,5-dicarboxamide] | – | – | < 100 | < 100 |
| Cc1ccc(-c2cc(C(=O)NC(C)c3ccc(Cl)cc3Cl)cc(S(C)(=O)=O)c2)nc1 (stereo not drawn) [Compound 387] | > 1000 | 100 to 500 | – | – |
| COCCOc1cc(C(=O)N[C@H](C)c2ccc(C)nc2)cc(-c2ccc(C)cc2)c1 [Compound 249] | < 100 | < 100 | – | – |
| Cc1ccc(-c2cc(C(=O)NCc3ccc(C)nc3)cc(C(O)CN(C)CCO)c2)cc1 (stereo not drawn) [Compound 368] | 501 to 1000 | < 100 | – | – |
| Cc1ccc(-c2cc(Oc3ncccn3)cc(C(=O)NCc3cnc(C)nc3)c2)cc1 [Compound 234] | 501 to 1000 | 100 to 500 | – | – |
| COCC(C)Oc1cc(C(=O)N[C@H](C)c2ccc(C)nc2)cc(-c2ccc(C)cc2C#N)c1 (stereo partly drawn) [Compound 316] | < 100 | < 100 | – | – |
| Cc1ccc(-c2cc(C(=O)N[C@H](CO)c3ccc(C)nc3)cc(S(C)(=O)=O)c2)cc1 [Compound 257, (S)—N-(2-Hydroxy-1-(6-methylpyridin-3-yl)ethyl)-4′-methyl-5-(methylsulfonyl)biphenyl-3-carboxamide] | < 100 | < 100 | – | – |
| Cc1ccc(-c2cc(C(=O)N[C@@H](C)CO)cc(S(C)(=O)=O)c2)cc1 [Compound 3, (S)—N-(1-hydroxypronan-2-yl)-4′-methyl-5-(methylsulfonyl)biphenyl-3-carboxamide] | – | – | > 1000 | 100 to 500 |
| Cc1ccc(CNC(=O)c2cc(-c3ccc(Cl)c(C)c3)cc(S(C)(=O)=O)c2)cn1 [Compound 119] | – | – | > 1000 | > 1000 |
| Cc1ccc(-c2cc(C(=O)N[C@H](C)c3cnc(C)nc3)cc(C(O)C(C)C)c2)cc1 (stereo partly drawn) [Compound 397] | < 100 | < 100 | – | – |

Results, then the compound that gave them:

| IC50 [1, 3] [nM] | IC50 [2, 4] [nM] | IC50 [1, 5] [nM] | IC50 [2, 6] [nM] | Structure (SMILES) |
| --- | --- | --- | --- | --- |
| < 100 | < 100 | – | – | Cc1ccc(-c2cc(OCCO)cc(C(=O)N[C@H](C)c3ccc(C)nc3)c2)c(C#N)c1 [Compound 305] |
| < 100 | < 100 | – | – | Cc1ccc(-c2cc(Oc3nc4ccccc4s3)cc(C(=O)N[C@H](C)c3ccc(C)nc3)c2)nc1 [Compound 376] |
| < 100 | < 100 | – | – | Cc1ccc(-c2cc(C(=O)N[C@H](C)c3ccc(C)nc3)cc(C(O)c3ccccc3)c2)nc1 (stereo partly drawn) [Compound 276] |
| – | – | 100 to 500 | 100 to 500 | Cc1ccc(-c2cc(C(=O)NCc3ccc(C(F)(F)F)c(F)c3)cc(C(=O)N3CCCC3)c2)nc1 [Compound 145] |
| – | – | < 100 | < 100 | Cc1ccc(-c2cc(C(=O)N[C@H](C)c3cnc(C)nc3)cc(C(=O)N3CCN4CCCC4C3)c2)cc1 (stereo partly drawn) [Compound 191, 4′-Methyl-N—((R)-1-(2-methylpyrimidin-5-yl)ethyl)-5-(octahydropyrrolo[1,2-a]pyrazine-2-carbonyl)biphenyl-3-carboxamide] |
| < 100 | < 100 | – | – | COCC(CO)Oc1cc(C(=O)N[C@H](C)c2ccc(C)nc2)cc(-c2ccc(C)cn2)c1 (stereo partly drawn) [Compound 348] |
| < 100 | < 100 | – | – | Cc1ccc(-c2cc(C(=O)N[C@H](C)c3ccc(C)nc3)cc(C(C)O)c2)nc1 (stereo partly drawn) [Compound 331] |
| – | – | < 100 | < 100 | Cc1ccc(-c2cc(C(=O)N[C@H](C)c3ccc(C)nc3)cc(C(=O)N3CCCC3)c2)nc1 [Compound 173] |
| 100 to 500 | 100 to 500 | – | – | Cc1ccc(-c2cc(Oc3nc(-c4ccccc4)cs3)cc(C(=O)N[C@H](C)c3ccc(C)nc3)c2)nc1 [Compound 375] |
| < 100 | < 100 | – | – | Cc1ncc([C@@H](C)NC(=O)c2cc(C(=O)N3CCCC3)cc(-c3ccc(Br)cc3)c2)cn1 [Compound 216] |
| – | – | < 100 | < 100 | COc1ccc(CNC(=O)c2cc(C(=O)N3CCCC3)cc(-c3ccc(C)cc3)c2)cn1 [Compound 152] |
